# According to patent US6649172B2, “Amphipathic aldehydes and their uses as adjuvants and immunoeffectors” (Corixa Corporation, priority 2000, dated 2003):
# What was measured:
# [1] = system: recombinant hepatitis B surface antigen (rHBsAg); assay: Serum antibody titers to rHBsAg by ELISA after vaccination (Example 8); assay type: in vivo, BALB/c mice; conditions: for adjuvant activity: serum antibody production (summary in words): rHBsAg vaccine, s.c. days 0 and 14, mice
# Procedure: Compounds 40, 42, and 44, were evaluated for adjuvant activity with a model hepatitis B vaccine. These compounds were prepared as aqueous formulations in PBS and admixed with recombinant hepatitis B surface antigen (rHBsAg) with or without the AGP adjuvant 99. Compound 99 was solubilized in an aqueous formulation containing dipalmitoylphosphatidyl choline in water. Mice were administered the vaccines on days 0 and 14 by subcutaneous (s.c.) injection. The antigen-specific immune response to rHBsAg was evaluated by measurement of serum antibody and cytotoxic T lymphocytes (CTL). The results shown in Table 3 confirm the adjuvant activity of compounds of 40, 42, and 44.
# CD8+, IFNγ+ cells [2] = assay: CD8+, IFNγ+ lymphocytes by flow cytometry, spleen cells of vaccinated mice (Example 8); on CTL Ratio of CD8+, IFNγ+ Lymphocytes: key: N: 1:5000-1:1000; 1N: 1:999-1:750; 2N: 1:749-1:500; 3N: 1:499-1:250; 4N: 1:249-1:200; 5N: 1:199-1:100; assay type: in vivo, BALB/c mice; conditions: for CTL Ratio of CD8+, IFNγ+ Lymphocytes: female BALB/c mice, s.c. days 0 and 14, spleen cells 11 days after secondary vaccination; for CTL response to the hepatitis vaccine antigen (summary in words): rHBsAg vaccine, s.c. days 0 and 14, mice, CD8+, IFNγ+ flow cytometry
# Procedure: Spleen cells were collected from donor mice 11 days after the secondary vaccination and evaluated for CTL activity. The rHBsAg directed CTL was assessed by measurement of CD8+, IFNγ+ using flow cytometry.
# CD8+, IFNγ+ cells [3] = assay: CD8+, IFNγ+ lymphocytes by flow cytometry, spleen cells of vaccinated mice (Example 7); further: key: N: 1:5000-1:1000; 1N: 1:999-1:750; 2N: 1:749-1:500; 3N: 1:499-1:250; 4N: 1:249-1:200; 5N: 1:199-1:100; assay type: in vivo, BALB/c mice; conditions: spleen cells 26 days after secondary vaccination, 75 nM CTL epitope peptide, six-hour incubation; s.c. days 0 and 21, 1 μg rHBsAg ± 1000 μg III ± 5 μg 99
# Procedure: (§1) Spleen cells were collected from donor mice 26 days after the secondary vaccination and evaluated for CTL activity. rHBsAg directed specific lysis was assessed in a standard four hour ^51Cr-release assay and by measurement of CD8+, IFNγ+ using flow cytometry.
# [4] = system: transfected P815 cell line (P815S); assay: CTL activity, four hour 51Cr-release assay with spleen cells of vaccinated mice (Example 7); assay type: in vivo, BALB/c mice; conditions: for Percent Specific Cell Lysis (50:1): 50:1 effector:target ratio, P815S targets, spleen cells 26 days after secondary vaccination, s.c. days 0 and 21, 1 μg rHBsAg ± 1000 μg III ± 5 μg 99
# Procedure: Fourteen days after the second injection single cell suspensions are prepared from splenic lymphocytes of 3 mice per group. The spleen cells (75×10^6) are subsequently incubated at 37° C. in 10 ml RP10-SC media containing 50 nM of an L^d-restricted HBV CTL epitope ([…]) for 4 days. Stimulated effector cells are harvested, resuspended to 5×10^6 […] and serially diluted (in triplicate) in a volume of 100 μl RP10-SC/well of a 96 well microtiter plate followed by the addition of […] of RP10-SC containing 1×10^4 51Cr labeled P815S target cells (transfected P815 cells (H-2^d) expressing the hepatitis B S-antigen). Plates are centrifuged for 5 min at 400×g and placed in a 37° C. CO2 incubator for 4 h. Percent specific cytotoxicity is then determined.
# as §1
# [5] = system: recombinant hepatitis B surface antigen (rHBsAg); assay: Serum antibody titers to rHBsAg by ELISA after vaccination (Example 7); assay type: in vivo, BALB/c mice
# Procedure: For the evaluation of antibody responses, […] by vaginal wash and individually tested for HBsAg-specific antibody activity by enzyme-linked immunosorbent assay (ELISA). The endpoint antibody titers of each mouse are evaluated as total IgG, IgG1, IgG2a, IgG2b and IgA specific for rHBsAg.
# Compound III, isotucaresol, was evaluated for adjuvant activity with a model hepatitis B vaccine. III, was prepared as an aqueous formulation in PBS and admixed with recombinant hepatitis B surface antigen (rHBsAg) (Rhein Biotech, Düisseldorf, Germany) with or without the AGP adjuvant 99 (2-[(R)-3-tetradecanoyloxytetradecanoylamino]ethyl 2-Deoxy-4-O-phosphono-3-O-[(R)-3-tetradecanoyloxytetradecanoyl]-2-[(R)-3-tetradecanoyloxytetradecanoylamino]-β-D-glucopyranoside Triethylammonium Salt). Mice were administered the vaccines on days 0 and 21 by subcutaneous (s.c.) injection of vaccine containing 1 μg rHBsAg±1000 μg III±5 μg 99. The antigen-specific immune response to rHBsAg was evaluated by measurement of serum antibody and cytotoxic T lymphocytes (CTL).
# [6] = system: sheep red blood cells (SRBC); conditions: cited from earlier work
# [7] = adjuvant dose 250 μg with rHBsAg
# [8] = adjuvant dose 500 μg with rHBsAg
# [9] = adjuvant dose 1000 μg with rHBsAg
# [10] = 1 μg rHBsAg + 1000 μg III + 5 μg 99, s.c. days 0 and 21, mice
# [11] = female BALB/c mice, s.c. days 0 and 21, 1 μg rHBsAg ± 1000 μg III ± 5 μg 99, serum 21 days post-secondary vaccination, ELISA
# [12] = adjuvant dose 5 μg with rHBsAg, female BALB/c mice, s.c. days 0 and 14, serum 11 days post-secondary vaccination, ELISA
# [13] = adjuvant dose 250 μg with rHBsAg, female BALB/c mice, s.c. days 0 and 14, serum 11 days post-secondary vaccination, ELISA
Compound,adjuvant activity: serum antibody production (summary in words) [1],"CTL Ratio of CD8+, IFNγ+ Lymphocytes (CD8+, IFNγ+ cells [2]; [7])","CTL Ratio of CD8+, IFNγ+ Lymphocytes (CD8+, IFNγ+ cells [2]; [8])","CTL Ratio of CD8+, IFNγ+ Lymphocytes (CD8+, IFNγ+ cells [2]; [9])","CTL response to the hepatitis vaccine antigen (summary in words) (CD8+, IFNγ+ cells [2])","Lymphocytes CD8+, IFNγ+ (ratio of CD8+, IFNγ+ cells to total CD8+ cells) (CD8+, IFNγ+ cells [3])",Percent Specific Cell Lysis (50:1) [4],melting point,"Gross Geometric Mean Serum Titers IgG1 [5, 11]","Gross Geometric Serum Titers IgG1 [1, 13]",other results
O=Cc1cc(OCc2ccc(C(=O)O)cc2)ccc1OCCCC(=O)O [Compound 44],enhanced serum antibody production,4N,3N,2N,enhance the CTL response,,,,,,
"O=Cc1cc(OCc2ccc(C(=O)O)cc2)ccc1O [Compound III, 4-[(3-formyl-4-hydroxyphenoxy)methyl]benzoic acid]",,,,,,2N,4+ (“4+” is 31-40 Percent Specific Cell Lysis),222 to 224 °C (dec.),"5,000X",,"effect on the CTL adjuvant activity induced by 99 (summary in words) [4, 10]: additive effect; CTL response to the vaccine antigen (summary in words) ([4]; 1 μg rHBsAg + 1000 μg III, s.c. days 0 and 21, mice, 51Cr-release and CD8+, IFNγ+ flow cytometry): enhances the CTL response; interaction with the AGP adjuvant 99 on serum antibody (summary in words) [5, 10]: acts synergistically; adjuvant activity: serum antibody production (summary in words) ([5]; 1 μg rHBsAg + 1000 μg III, s.c. days 0 and 21, mice): enhanced serum antibody production; Gross Geometric Mean Serum Titers IgG [5, 11]: 5,000X"
C[C@@H]1CC[C@@]2(OC1)O[C@H]1[C@@H](O)[C@H]3[C@@H]4CC[C@H]5C[C@@H](O[C@@H]6O[C@H](CO)[C@H](O[C@@H]7O[C@H](CO)[C@@H](O)[C@H](O[C@@H]8OC[C@@H](O)[C@H](O)[C@H]8O)[C@H]7O[C@@H]7O[C@H](CO)[C@H](O)[C@H](O[C@@H]8O[C@H](CO)[C@@H](O)[C@H](O)[C@H]8O)[C@H]7O)[C@H](O)[C@H]6O)[C@H](O)C[C@]5(C)[C@H]4CC[C@]3(C)[C@H]1[C@@H]2C [digitonin],,,,,,,,,,,hemolytic activity towards red blood cells [6]: highly hemolytic
"2-[(R)-3-tetradecanoyloxytetradecanoylamino]ethyl 2-Deoxy-4-O-phosphono-3-O-[(R)-3-tetradecanoyloxytetradecanoyl]-2-[(R)-3-tetradecanoyloxytetradecanoylamino]-β-D-glucopyranoside triethylammonium salt [Compound 99, reference compound]",,,,,,3N,5+ (“5+” is 41-50 Percent Specific Cell Lysis),,"5,000X",,"Gross Geometric Serum Titers IGG [1, 12]: 5,000X; Gross Geometric Serum Titers IgG2a [1, 12]: 5,000X; CTL Ratio of CD8+, IFNγ+ Lymphocytes (CD8+, IFNγ+ cells [2]; adjuvant dose 5 μg with rHBsAg): 4N; Gross Geometric Mean Serum Titers IgG2a [5, 11]: 5,000X"
"COC(=O)c1ccc(COc2ccc(O)c(C=O)c2)cc1 [Compound 40, methyl 4-(3-formyl-4-hydroxyphenoxymethyl)benzoate]",enhanced serum antibody production,3N,2N,5N,enhance the CTL response,,,132 to 134 °C,,"1,000X","Gross Geometric Serum Titers IgG1 ([1]; adjuvant dose 500 μg with rHBsAg, female BALB/c mice, s.c. days 0 and 14, serum 11 days post-secondary vaccination, ELISA): 5,000X; Gross Geometric Serum Titers IgG1 ([1]; adjuvant dose 1000 μg with rHBsAg, female BALB/c mice, s.c. days 0 and 14, serum 11 days post-secondary vaccination, ELISA): 5,000X"
"O=Cc1cc(OCc2ccc(C(=O)O)cc2)ccc1OCC(=O)O [Compound 42, 4-[(4-carboxymethoxy-3-formyl-phenoxy)methyl]benzoic acid]",enhanced serum antibody production,5N,3N,2N,enhance the CTL response,,,239 to 242 °C (dec.),,"1,000X",
